The numbers were not newly measured in patent US20120034285A1, “Mosquito Net with Dinotefuran and PBO for Killing Mosquitoes, Especially Mosquitoes with Pyrethroid Resistance” (priority 2009, published 2012), which cites them from elsewhere.

For one series, the system named is mosquitoes. The conditions noted are these: in contrast to pyrethroids; also mentioned in JP 10 139604.
The next series deals with cockroaches. As to conditions: PBO added as an oxidase inhibitor; Dinotefuran injected into the stomach.
For the next series, the system named is Aedes aegypti. As to conditions: in vivo.
Series [1] deals with mosquito strain VKPR (also termed VKPER) of the An. gambiae species. As to conditions: strain with mutation for knockdown-resistance against pyrethroids.
Another series concerns Culex quinquefasciatus. The conditions noted are these: in vivo.
In another series the test system is Anopheles gambiae. As to conditions: in vivo.

On to `CN/C(=N/CC1CCOC1)N[N+](=O)[O-]` (stereo not drawn) [Dinotefuran], for which the mosquito repellent effect result in the series on mosquitoes was “does not have a mosquito repellent effect”. The toxicity on cockroaches result in the series on cockroaches was “increased toxicity”. Further, the lethal effect result (in the series on Aedes aegypti; in series [1]; with Culex quinquefasciatus; in the series with Anopheles gambiae) was “lethal effect” in each case.
